Drawing on PubChem BioAssay (NCI), this text covers TGI and GI50 for ten compounds.

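48-hour exposure; five concentrations; linearly interpolated endpoints. The concentration for 50% growth inhibition is given as GI50. TGI denotes the concentration required for complete inhibition of growth.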 A value given as a limit tells only on which side of the number the result lay.

Among the test systems are DU-145 prostate; PC-3 prostate; HL-60(TB) leukemia; SNB-75 CNS; ACHN renal; SF-295 CNS; SK-MEL-5 melanoma; NCI-H226 lung; T-47D breast; 786-0 renal; U251 CNS; HCC-2998 colon.
What all share (experiment): NCI anticancer screen, dose series, 48 h

`CC(C)=CCCC(C)CCOS(=O)C(F)(F)F` (centres undefined): the TGI in the assay on DU-145 prostate is above 100 µM; in the assay with PC-3 prostate it was 45.3 µM; in the assay on HL-60(TB) leukemia it was 9.14 µM; in the assay with SNB-75 CNS, 67.7 µM; in the assay with ACHN renal, 34.4 µM; in the assay with SF-295 CNS, 86.8 µM. In addition, the TGI in the assay on SK-MEL-5 melanoma was 33.1 µM; in the assay on NCI-H226 lung, 41.4 µM; in the assay on T-47D breast, above 100 µM; with 786-0 renal, above 100 µM; in the assay on U251 CNS it was 22.9 µM; with HCC-2998 colon, 27.5 µM.

For `CCCSc1ccc2[nH]c(N3C(=O)/C(=C/c4ccc(SC)cc4)N=C3c3ccccc3)cc2c1`, the TGI in the assay with DU-145 prostate was above 50 µM; in the assay on PC-3 prostate, above 50 µM; in the assay with HL-60(TB) leukemia, 24.8 µM; with SNB-75 CNS, above 50 µM; in the assay with ACHN renal it was above 50 µM; in the assay on SF-295 CNS, above 50 µM. In addition, the TGI in the assay with SK-MEL-5 melanoma is above 36.3 µM; in the assay on NCI-H226 lung, above 50 µM; in the assay with T-47D breast, above 50 µM; in the assay on 786-0 renal it was above 50 µM; in the assay on U251 CNS, above 50 µM; in the assay with HCC-2998 colon it was above 50 µM.

`O=C1Nc2nccnc2C(=O)N2CCC[C@@H]12`: the TGI in the assay on DU-145 prostate, with PC-3 prostate, with HL-60(TB) leukemia, with SNB-75 CNS, in the assay with ACHN renal and with SF-295 CNS was above 100 µM throughout. The TGI with SK-MEL-5 melanoma, in the assay on NCI-H226 lung, with T-47D breast, in the assay on 786-0 renal, with U251 CNS and in the assay with HCC-2998 colon was above 100 µM each time.

For `Cc1ccc2c(=O)cc(-c3ccc4ccccc4c3)[nH]c2n1`, the TGI is above 100 µM in the assay with DU-145 prostate; 9.61 µM in the assay on PC-3 prostate; 4.18 µM in the assay with HL-60(TB) leukemia; 14.6 µM in the assay with SNB-75 CNS; above 100 µM with ACHN renal; 39.6 µM with SF-295 CNS. Also, the TGI in the assay on SK-MEL-5 melanoma is 12.7 µM; with NCI-H226 lung it was 98.4 µM; with T-47D breast it was above 100 µM; in the assay on 786-0 renal, above 100 µM; in the assay on U251 CNS, above 100 µM; in the assay with HCC-2998 colon it was 68.6 µM. Moreover, the GI50 in the assay with PC-3 prostate is 2.62 µM; in the assay with SF-295 CNS, 3.8 µM; with SK-MEL-5 melanoma it was 3.3 µM; in the assay with U251 CNS, 4.57 µM.

Turning to `O=C(/C=C/c1ccccc1)Nc1ccccc1SCCCCl`, the TGI is above 100 µM with DU-145 prostate; above 100 µM with PC-3 prostate; 43.6 µM with HL-60(TB) leukemia; above 87.1 µM in the assay on SNB-75 CNS; above 100 µM in the assay with ACHN renal; 49.4 µM in the assay with SF-295 CNS. The TGI in the assay on SK-MEL-5 melanoma is above 91.4 µM; in the assay on NCI-H226 lung, above 100 µM; with T-47D breast it was above 85.8 µM; with 786-0 renal, above 100 µM; with U251 CNS, above 82.8 µM; in the assay on HCC-2998 colon it was 73.9 µM.

For `O=C1/C(=C/c2ccccc2[N+](=O)[O-])N=C(c2ccccc2)N1c1nc2ccccc2s1`, the TGI in the assay on DU-145 prostate was 47.6 µM; in the assay on PC-3 prostate it was above 100 µM; in the assay on HL-60(TB) leukemia, 57.1 µM; in the assay on SNB-75 CNS, 64.6 µM; with ACHN renal, 82.1 µM; in the assay on SF-295 CNS, above 100 µM. Further, the TGI in the assay with SK-MEL-5 melanoma was above 100 µM; in the assay with NCI-H226 lung it was above 100 µM; in the assay on T-47D breast it was 76.6 µM; in the assay with 786-0 renal, 58.8 µM; in the assay on U251 CNS, above 100 µM; with HCC-2998 colon, 43.1 µM.

In the case of `CCOC(=O)NC(Nc1ccc(F)cc1)(C(=O)OCC)C(F)(F)F` (centres undefined), the TGI with DU-145 prostate, in the assay with PC-3 prostate, in the assay with HL-60(TB) leukemia, in the assay with SNB-75 CNS, in the assay on ACHN renal and with SF-295 CNS was above 100 µM throughout. Further, the TGI with SK-MEL-5 melanoma, in the assay with NCI-H226 lung, with T-47D breast, with 786-0 renal, in the assay with U251 CNS and in the assay on HCC-2998 colon was above 100 µM throughout.

Take `CCc1ccc(COC(=O)C2=C(C)NC(C)=C(C(=O)OCc3ccc(CC)cn3)C2C2=COCCO2)nc1`: the TGI is above 100 µM with DU-145 prostate; 43.1 µM in the assay on PC-3 prostate; 66.7 µM in the assay on HL-60(TB) leukemia; 39.3 µM in the assay with SNB-75 CNS; 89.7 µM in the assay with ACHN renal; 61.3 µM in the assay with SF-295 CNS. Further, the TGI came to 26.1 µM in the assay on SK-MEL-5 melanoma; 40 µM in the assay with NCI-H226 lung; 36.1 µM with T-47D breast; 69.4 µM in the assay on 786-0 renal; 35.4 µM with U251 CNS; 37.7 µM with HCC-2998 colon.

In the case of `COC1CC(OC2C(C)OC(OC3C(C)OC(OC4C(C)OC(O[C@H]5CC[C@@]6(C)C(=CC[C@]7(O)[C@@H]6C[C@@H](OC(C)=O)[C@@]6(C)[C@]7(O)CC[C@@]6(O)C(C)=O)C5)CC4OC)CC3OC)CC2OC)OC(C)C1O` (some centres undefined), the TGI with DU-145 prostate, with PC-3 prostate, in the assay with HL-60(TB) leukemia, in the assay on SNB-75 CNS, with ACHN renal and in the assay with SF-295 CNS was above 25 µM each time. The TGI with SK-MEL-5 melanoma, in the assay with NCI-H226 lung, with T-47D breast, in the assay on 786-0 renal, in the assay on U251 CNS and in the assay on HCC-2998 colon was above 25 µM each time.

For `CC(C)C(OC(=O)c1ccc(NCC2=CC(=O)C=CC2=O)cc1)C(C)C`, the TGI with DU-145 prostate is 65.5 µM; in the assay on PC-3 prostate, 29.9 µM; in the assay on HL-60(TB) leukemia it was 3.96 µM; in the assay with SNB-75 CNS, 17.2 µM; with ACHN renal, 21.2 µM; in the assay with SF-295 CNS, 29.4 µM. The TGI in the assay on SK-MEL-5 melanoma was found to be 24.5 µM; in the assay with NCI-H226 lung, 11.7 µM; in the assay on T-47D breast, 7.45 µM; with 786-0 renal it was 22.8 µM; in the assay on U251 CNS, 13.5 µM; with HCC-2998 colon, 27.9 µM.
